In patent US20060020004A1, “Isoxazolidine compounds for treatment of bacterial infections” (Infinity Pharmaceuticals, Inc., priority 2004, published 2006):

Assays:
S. cerevisiae Δpdr5 = assay: MIC determination, yeast; assay type: cell-based; settings: YPD, 30 degrees Celsius
Method: (§1) Susceptibility testing for bacterial cultures is performed according to the National Council for Clinical Laboratory Standards (NCCLS) protocol M100-S12, “Performance Standards for Antimicrobial Susceptibility Testing.” The bacterial strains recommended by NCCLS were obtained from the American Type Culutre Collection (ATCC) (Table) and were maintained on Mueller Hinton (MHA) agar plates plus or minus 3% lysed horse blood (see Table). The bacteria were grown in Cation adjusted Mueller Hinton Broth (CaMHB) for liquid growth and susceptibility testing. S. cerevisiae (yeast) is grown in yeast peptone dextrose (YPD) media.
(§2) Diluted bacterial cultures are added to compound plates with compound diluted 2-fold from 100 μg/mL to 0.2 μg/mL final concentration in DMSO. Control antibiotics are also added: vancomycin, linezolid, and penicillin. In 384 well plates, 0.5 μL compound is added followed by addition of 50 μL of culture. DMSO alone is included as a control. Plates incubated at 37 degrees Celsius for 17-24 h.
Yeast cultures are started from a fresh colony into YPD media and then diluted to OD of 0.002. Diluted yeast is added to compound plates as bacteria but incubated at 30 degrees Celsius for 17 h. Controls are amphotericin B and voriconazole.
(§3) Plates with cells mixed with compounds are incubated for 17 h for S. aureus and yeast, 24 h for MRSA, and all Enterococcus and Streptococcus strains. Yeast plates are incubated […].
(§4) Viability is determined by reading plates at A590 to determine optical density of treated and untreated cells and determining growth inhibition relative to controls.

[1] = test system: Van-intermediate E. faecalis ATCC 51299 / Van-resistant E. faecalis ATCC 700221; assay: MIC determination, VIRE/VRE; assay type: cell-based, Enterococcus faecalis; settings: ATCC 51299 / 700221, 24 h
Method: The MICs were determined using a broth micro-dilution assay in accordance with that recommended by the National Committee for Clinical Laboratory Standards (NCCLS). The final bacterial inoculate contained approximately 5×10^5 cfu/mL and the plates were incubated at 35° C. for 18 h in ambient air (Streptococci in 5% CO2). The MIC was defined as the lowest drug concentration that prevented visible growth.
as §1
(§5) All bacterial cultures were grown at 37 degrees Celsius. Fresh colonies of S. aureus and MRSA were inoculated into liquid media and grown overnight and diluted the next day to grow to mid-log (Table 2). E. faecalis and S. pneumonia mid-log cultures were started directly from colony on plates. To attain mid-log growth, cultures were grown to an optical density (OD) at A590 of 0.2-0.8 (see Table 2) and then diluted to proper OD to obtain 5×10^5 cells/mL.
as §2, §3, §4

[2] = test system: Enterococcus faecalis ATCC 29212; assay: MIC determination, E. faecalis; assay type: cell-based; settings: ATCC 29212, 24 h
Method: as §1, §5, §2, §3, §4

[3] = test system: Penicillin-res. S. pneumonia ATCC 700671; assay: MIC determination, PRSP; assay type: cell-based, Streptococcus pneumonia; settings: ATCC 700671, 24 h
Method: as §1, §5, §2, §3, §4

[4] = test system: Staphylococcus aureus (Smith) ATCC 19636; assay: MIC determination, S. aureus; assay type: cell-based; settings: S. aureus ATCC 19636, 17 h
Method: as §1, §5, §2, §3, §4

[5] = test system: Streptococcus pneumonia ATCC 49619; assay: MIC determination, S. pneumonia; assay type: cell-based; settings: ATCC 49619, 24 h
Method: as §1, §5, §2, §3, §4

[6] = test system: Methicillin resistant S. aureus ATCC 33591; assay: MIC determination, MRSA; assay type: cell-based, Staphylococcus aureus; settings: MRSA ATCC 33591, 24 h
Method: as §1, §5, §2, §3, §4

| SMILES | MIC S. cerevisiae Δpdr5 (S. cerevisiae Δpdr5) | MIC VIRE/VRE [1] | MIC E. faecalis [2] | MIC PRSP [3] | MIC S. aureus [4] | MIC S. pneuomiae [5] | MIC MRSA [6] |
| --- | --- | --- | --- | --- | --- | --- | --- |
| CC(O)C1ON(Cc2ccc(C=Cc3ccc(Cl)cc3)cc2)C(C(=O)NCCc2c[nH]c3ccccc23)C1CO (centres unmarked) | * (the MIC is >90 μg/mL) | * (the MIC is >90 μg/mL) | *** (the MIC is less than 5 μg/mL) | ** (the MIC is 5-90 μg/mL) | *** (the MIC is less than 5 μg/mL) | ** (the MIC is 5-90 μg/mL) | *** (the MIC is less than 5 μg/mL) |
| Cc1ccc(C#Cc2ccc(CN3OC(C(C)O)C(CO)C3C(=O)NCCc3c[nH]c4ccccc34)cc2)cc1 (centres unmarked) [drawing 205] | ** (the MIC is 5-90 μg/mL) | ** (the MIC is 5-90 μg/mL) | ** (the MIC is 5-90 μg/mL) | ** (the MIC is 5-90 μg/mL) | *** (the MIC is less than 5 μg/mL) | ** (the MIC is 5-90 μg/mL) | *** (the MIC is less than 5 μg/mL) |
